Structures can show the parent of a compound that is named as a salt.
Legend:
Format in all cases: cell-based
[1] = biological target: T1, human EDG8 (S1PR5) receptor (Homo sapiens, UniProt Q9H228); assay: Method 2: Aequorin assay, cell clone CHO-A21-EDG8 #12; conditions: agonist potency, determined with method 2 (symbols E-G); read-out: S1P5 EC50 range
T1 construct: expressed in transfected cells; host or cells: CHO (clone CHO-A21-EDG8 #12)
Method: (§1) Agonistic activity was measured using two different methods, described below.
(§2) Genetically Engineered Cells
(§3) Cell clone CHO-A21-Edg1 #17 carries the transgenes human EDG1 (S1PR1) receptor (Accession number NP_001391.2), mitochondrially targeted Aequorin (active part corresponds to accession number 1SL8_A) and chimaeric Gaqi5=Gaq modified with the 5 C-terminal amino-acids replaced with those of the Gai protein (DCGLF). CHO-A2-S1P3 Mix is a cell pool ectopically expressing human EDG3 (S1PR3) receptor (Accession number NP_005217.2) mitochondrially targeted Aequorin (active part has a sequence similar to accession number AY601106.1) and GNA16 (Accession number NP_002059.3). Cell clone CHO-A21-EDG8 #12 carries the transgenes human EDG8 (S1PR5) receptor (Accession number NP_110387.1), mitochondrially expressed Aequorin (active part corresponds to accession number 1SL8_A) and chimaeric Gaqi5 (Gaq modified to present the 5 last amino-acids of the Gai protein “DCGLF”; see above). Cells are grown to mid-log phase in culture medium (HAM's F12, 10% FBS, 100 IU/mL penicillin, 100 μg/mL streptomycin, 250 μg/mL Zeocin, 400 μg/mL G418). 18 hours prior to frozen cells preparation, the medium is changed to remove the antibiotics.
(§4) 18 hours prior to the test, vials of frozen cells are quickly thawed in a 37° C. water bath, cells are recovered by centrifugation and resuspended in assay buffer (DMEM/HAM's F12 with HEPES, without phenol red+0.1% fatty acid-free BSA). Cells are gently agitated in suspension overnight at RT in presence of 5 μM of Coelenterazine h (Molecular Probes). On the day of the test, cells are diluted to their final working concentrations in assay buffer and agitated in suspension for 1 h at RT. Cells are then placed in the luminescence reader (Hamamatsu Functional Drug Screening System 6000, FDSS6000). During cells incubation, compounds are prepared in 100% DMSO, and subsequently diluted in assay buffer. Compounds are then dispensed in the assay plate (black, clear-bottom, 384-well plate). After binding of agonists to the human S1P receptor the intracellular calcium concentration increases and binding of calcium to the Aequorin/Coelenterazine complex leads to an oxidation reaction of coelenterazine, which results in the production of […], coelenteramide, CO2 and light (Dmax 469 nm). The luminescent response is dependent on the agonist concentration. For agonist testing, 30 μL of cell suspension are injected on 30 μL of test compound or reference agonist in the assay plate. The resulting emission of light is recorded for 90 seconds using the FDSS6000. Dose response curves with the reference compounds are performed before testing the compounds. S1P is the reference agonist and JTE-013 the reference antagonist for S1P2. […]
(§5) Luminescence data are integrated over the reading interval for agonist and antagonist modes. To standardize the emission of recorded light (determination of the “100% signal”) across plates and across different experiments, some of the wells contain 100 μM digitonin or a saturating concentration of ATP (20 μM). Plates also contain the reference agonist at a concentration equivalent to the EC80 obtained during the test validation and the EC100. Dose-response data from test compounds were analyzed with XLfit (IDBS) software using nonlinear regression applied to a sigmoidal dose-response model and the following equation: • XL Fit fit Model 203: 4 Parameter Logistic Model • A: Bottom • B: TOP • C: LogEC50 • D: Hill fit=(A+((B−A)/(1+(((10^C)/x)^D)))) inv=((10^C)/((((B−A)/(y−A))−1)^(1/D))) res=(y−fit)

[2] = biological target: T2, human EDG1 (S1PR1) receptor (Homo sapiens, UniProt P21453); assay: Method 2: Aequorin assay, cell clone CHO-A21-Edg1 #17; conditions: (2): determined with method 2; read-out: S1P1 EC50
T2 construct: expressed in transfected cells; host or cells: CHO (clone CHO-A21-Edg1 #17)
T2 sequence (P21453 whole entry): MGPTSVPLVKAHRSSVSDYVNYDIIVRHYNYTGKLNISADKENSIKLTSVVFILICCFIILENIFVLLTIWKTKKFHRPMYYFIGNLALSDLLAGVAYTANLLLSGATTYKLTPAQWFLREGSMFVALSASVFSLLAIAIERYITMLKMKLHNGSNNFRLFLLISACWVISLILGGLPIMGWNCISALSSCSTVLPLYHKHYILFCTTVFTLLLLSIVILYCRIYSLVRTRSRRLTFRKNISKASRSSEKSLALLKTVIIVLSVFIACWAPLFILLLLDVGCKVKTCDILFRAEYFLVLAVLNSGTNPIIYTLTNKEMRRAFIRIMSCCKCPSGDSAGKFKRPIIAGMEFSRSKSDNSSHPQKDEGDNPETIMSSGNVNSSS
Method: as §1, §2, §3, §4, §5

[3] = biological target: T3, human EDG3 (S1PR3) receptor (Homo sapiens, UniProt Q99500); assay: Method 2: Aequorin assay, cell pool CHO-A2-S1P3 Mix; conditions: (2): determined with method 2
T3 construct: expressed in transfected cells; host or cells: CHO (cell pool CHO-A2-S1P3 Mix)
T3 sequence (Q99500 whole entry): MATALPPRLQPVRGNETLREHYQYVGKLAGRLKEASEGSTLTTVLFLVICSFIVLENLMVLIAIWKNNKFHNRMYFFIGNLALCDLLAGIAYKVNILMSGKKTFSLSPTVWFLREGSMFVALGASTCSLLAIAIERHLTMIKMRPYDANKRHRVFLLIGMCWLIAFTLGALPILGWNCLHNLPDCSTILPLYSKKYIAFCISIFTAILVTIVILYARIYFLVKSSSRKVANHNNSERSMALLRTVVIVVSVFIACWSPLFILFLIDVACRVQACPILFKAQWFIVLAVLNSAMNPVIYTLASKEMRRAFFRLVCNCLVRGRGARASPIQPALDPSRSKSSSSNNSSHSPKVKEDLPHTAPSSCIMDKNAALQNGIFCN
Method: as §1, §2, §3, §4, §5

human S1PR4 receptor = biological target: T4, human S1PR4 receptor (Homo sapiens, UniProt O95977); assay: Method 1: intracellular Ca2+ release (FLIPR, Calcium 5) in recombinant CHO-K1 cells; conditions: (1): determined with method 1; read-out: S1P4 EC50
T4 construct: host or cells: CHO-K1
T4 sequence (O95977 1-384): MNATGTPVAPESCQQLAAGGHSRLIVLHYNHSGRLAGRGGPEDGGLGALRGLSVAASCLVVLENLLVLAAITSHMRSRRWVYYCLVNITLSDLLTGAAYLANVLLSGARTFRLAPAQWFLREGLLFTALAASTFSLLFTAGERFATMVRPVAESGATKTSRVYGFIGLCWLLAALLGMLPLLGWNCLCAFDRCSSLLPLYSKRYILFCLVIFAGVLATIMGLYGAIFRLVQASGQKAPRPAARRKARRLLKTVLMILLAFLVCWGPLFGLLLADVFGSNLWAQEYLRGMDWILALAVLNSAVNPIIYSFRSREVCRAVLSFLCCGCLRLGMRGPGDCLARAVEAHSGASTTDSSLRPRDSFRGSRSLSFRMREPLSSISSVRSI
Method in brief: (§6)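 CHO-K1 cells co-expressing the receptor, aequorin and Gq/i5 were loaded with Calcium 5 dye 1 h at 37° C, then held 45 min at RT. Serially diluted compounds added in HBSS/20 mmol/L Hepes/2.5 mmol/L probenecid/0.1% BSA pH 7.4. FLIPR Tetra fluorescence, normalized to phospho-fingolimod, fitted for EC50.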

human S1PR1 receptor = biological target: T5, human S1PR1 receptor (Homo sapiens, UniProt P21453); assay: as above; conditions: (1): determined with method 1; read-out: S1P1 EC50
T5 construct: host or cells: CHO-K1
T5 sequence (P21453 whole entry): as the sequence (P21453 whole entry) above
Method in brief: as §6

human S1PR5 receptor = biological target: T6, human S1PR5 receptor (Homo sapiens, UniProt Q9H228); assay: as above; conditions: agonist potency, determined with method 1 (symbols A-D); read-out: S1P5 EC50 range
T6 construct: host or cells: CHO-K1
T6 sequence (Q9H228 whole entry): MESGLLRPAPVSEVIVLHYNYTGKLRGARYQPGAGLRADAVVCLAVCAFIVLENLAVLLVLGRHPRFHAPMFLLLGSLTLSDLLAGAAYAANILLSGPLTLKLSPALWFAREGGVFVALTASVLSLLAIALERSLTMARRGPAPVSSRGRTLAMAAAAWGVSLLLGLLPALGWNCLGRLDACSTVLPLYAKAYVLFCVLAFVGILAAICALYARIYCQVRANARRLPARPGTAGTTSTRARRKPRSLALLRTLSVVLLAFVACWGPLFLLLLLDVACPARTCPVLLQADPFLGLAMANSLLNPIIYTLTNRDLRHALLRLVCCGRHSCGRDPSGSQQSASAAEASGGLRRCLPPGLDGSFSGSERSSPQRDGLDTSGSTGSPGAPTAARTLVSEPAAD
Method in brief: as §6

human S1PR3 receptor = biological target: T7, human S1PR3 receptor (Homo sapiens, UniProt Q99500); assay: as above; conditions: (1): determined with method 1; read-out: S1P3 EC50
T7 construct: host or cells: CHO-K1
T7 sequence (Q99500 whole entry): as the sequence (Q99500 whole entry) above
Method in brief: as §6

T1 sequence (Q9H228 whole entry): as the sequence (Q9H228 whole entry) above

Row | EC50 [1] [nM] | EC50 [2] [nM] | EC50 [3] [nM] | EC50 (human S1PR4 receptor) [nM] | EC50 (human S1PR1 receptor) [nM] | EC50 (human S1PR5 receptor) [nM] | EC50 (human S1PR3 receptor) [nM] | SMILES
1 | < 100 | > 1000 | > 1000 |  |  |  |  | O=C(O)CCN1CCc2nc(-c3ccc(OCc4ccccc4)cc3F)ccc2C1 [Compound 134, 3-(2-(4-(benzyloxy)-2-fluorophenyl)-7,8-dihydro-1,6-naphthyridin-6(5H)-yl)propanoic acid]
2 | 1000 to 10000 | > 1000 | > 1000 |  |  |  |  | Cc1cc(OCc2ccccc2)ccc1-c1ccc2c(n1)CCN(CCC(=O)O)C2 [Compound 135, 3-(2-(4-(benzyloxy)-2-methylphenyl)-7,8-dihydro-1,6-naphthyridin-6(5H)-yl)propanoic acid]
3 | < 100 | > 1000 | > 1000 |  |  |  |  | O=C(O)CCN1CCc2nc(-c3ccc(OCc4cccc(F)c4F)cc3)ccc2C1 [Compound 131, 3-(2-(4-((2,3-difluorobenzyl)oxy)phenyl)-7,8-dihydro-1,6-naphthyridin-6(5H)-yl)propanoic acid]
4 | 100 to 1000 | > 1000 | > 1000 |  |  |  |  | CC(CN1CCc2cc(-c3ccc(OCc4ccccc4)cc3)nnc2C1)C(=O)O (stereo not shown) [Compound 206, 3-(3-(4-(benzyloxy)phenyl)-5,6-dihydropyrido[3,4-c]pyridazin-7(8H)-yl)-2-methylpropanoic acid]
5 | 100 to 1000 | > 1000 | > 1000 |  |  |  |  | O=C(O)CCN1CCc2nc(-c3ccc(OCc4c(Cl)cccc4Cl)cc3)ccc2C1 [Compound 130, 3-(2-(4-((2,6-dichlorobenzyl)oxy)phenyl)-7,8-dihydro-1,6-naphthyridin-6(5H)-yl)propanoic acid]
6 | 100 to 1000 | > 1000 | > 1000 |  |  |  |  | CC(CN1CCc2nc(-c3ccc(OCc4ccccc4)cc3)ccc2C1)C(=O)O (stereo not shown) [Compound 101, 3-(2-(4-(benzyloxy)phenyl)-7,8-dihydro-1,6-naphthyridin-6(5H)-yl)-2-methylpropanoic acid]
7 | 100 to 1000 | > 1000 | > 1000 |  |  |  |  | O=C(O)CCN1CCc2nc(-c3ccc(OCc4ccccc4)cc3)ccc2C1 [Compound 129, 3-(2-(4-(benzyloxy)phenyl)-7,8-dihydro-1,6-naphthyridin-6(5H)-yl)propanoic acid]
8 | < 100 | > 1000 | > 1000 |  |  |  |  | O=C(O)CCN1CCc2nc(-c3ccc(OCc4ccccc4F)cc3)ccc2C1 [Compound 132, 3-(2-(4-((2-fluorobenzyl)oxy)phenyl)-7,8-dihydro-1,6-naphthyridin-6(5H)-yl)propanoic acid]
9 | 1000 to 10000 | > 1000 | > 1000 |  |  |  |  | CC(CC(=O)O)N1CCc2nc(-c3ccc(OCc4ccccc4)cc3)ccc2C1 (stereo not shown) [Compound 113, 3-(2-(4-(benzyloxy)phenyl)-7,8-dihydro-1,6-naphthyridin-6(5H)-yl)butanoic acid]
10 | 100 to 1000 | > 1000 | > 1000 |  |  |  |  | CC(CN1CCc2nc(-c3ccc(OCc4cc(F)cc(F)c4)cc3)ncc2C1)C(=O)O (stereo not shown) [Compound 9, 3-(2-(4-((3,5-difluorobenzyl)oxy)phenyl)-7,8-dihydropyrido[4,3-d]pyrimidin-6(5H)-yl)-2-methylpropanoic acid]
11 | 1000 to 10000 | > 1000 | > 1000 |  |  |  |  | CC(CC(=O)O)N1Cc2ccc(-c3ccc(OCc4ccccc4)cc3)nc2C1 (stereo not shown) [Compound 200, 3-(2-(4-(benzyloxy)phenyl)-5H-pyrrolo[3,4-b]pyridin-6(7H)-yl)butanoic acid]
12 |  |  |  | > 1000 | > 1000 | 10 to 100 | > 1000 | CC(CCC(=O)O)N1CCc2nc(-c3ccc(OCc4cccc(Cl)c4)cc3)ncc2C1 (stereo not shown) [Compound 65, 4-(2-(4-((3-chlorobenzyl)oxy)phenyl)-7,8-dihydropyrido[4,3-d]pyrimidin-6(5H)-yl)pentanoic acid]
13 |  |  |  | > 1000 | > 1000 | < 10 | > 1000 | O=C(O)CCN1CCc2nc(-c3ccc(OCc4ccccc4)cc3)c(F)cc2C1 [Compound 186, 3-(2-(4-(benzyloxy)phenyl)-3-fluoro-7,8-dihydro-1,6-naphthyridin-6(5H)-yl)propanoic acid]
14 |  |  |  | > 1000 | > 1000 | < 10 | > 1000 | Cc1c(COc2ccc(-c3ncc4c(n3)CCN(CC(C)CC(=O)O)C4)cc2)cccc1C(F)(F)F (stereo not shown) [Compound 246, 3-methyl-4-[2-[4-[[2-methyl-3-(trifluoromethyl)phenyl]methoxy]phenyl]-7,8-dihydro-5H-pyrido[4,3-d]pyrimidin-6-yl]butanoic acid 2,2,2-trifluoroacetic acid salt]
15 |  |  |  | > 1000 | > 1000 | 100 to 1000 | > 1000 | O=C(O)C1CC(N2CCc3nc(C#Cc4ccc(OCc5ccccc5)cc4)ccc3C2)C1 (stereo not shown) [Compound 125, 3-(2-((4-(benzyloxy)phenyl)ethynyl)-7,8-dihydro-1,6-naphthyridin-6(5H)-yl)cyclobutanecarboxylic acid]
16 |  |  |  | > 1000 | < 1000 | < 10 | > 1000 | Cc1ccccc1COc1ccc(-c2ncc3c(n2)CCN(CC(C)CC(=O)O)C3)cc1 (stereo not shown) [Compound 234, 3-methyl-4-[2-[4-(o-tolylmethoxy)phenyl]-7,8-dihydro-5H-pyrido[4,3-d]pyrimidin-6-yl]butanoic acid 2,2,2-trifluoroacetic acid salt]
17 |  |  |  | > 1000 | > 1000 | 1000 to 10000 | > 1000 | O=C(O)C1CC(N2CCc3nc(C#Cc4cccc(Cl)c4)ncc3C2)C1 (stereo not shown) [Compound 62, 3-(2-((3-chlorophenyl)ethynyl)-7,8-dihydropyrido[4,3-d]pyrimidin-6(5H)-yl)cyclobutanecarboxylic acid]
18 |  |  |  | > 1000 | < 1000 | < 10 | > 1000 | CC(CC(=O)O)CN1CCc2nc(-c3ccc(OCc4cccc(F)c4F)cc3)ncc2C1 (stereo not shown) [Compound 226, 4-[2-[4-[(2,3-difluorophenyl)methoxy]phenyl]-7,8-dihydro-5H-pyrido[4,3-d]pyrimidin-6-yl]-3-methyl-butanoic acid 2,2,2-trifluoroacetic acid salt]

Reference: patent US10556907B2 (AbbVie Inc., priority 2015, dated 2020)
